The source of these data is patent US8604212B2, “Anti-shock agent comprising diaminotrifluoromethylpyridine derivative” (Ishihara Sangyo Kaisha, Ltd., priority 2009, dated 2013).

For this test, the system named is mouse models with septic shock, the onset of which was peritonitis triggered by the cecal puncture. The test is described as follows: Therapeutic effect on mouse models with septic shock, the onset of which was peritonitis triggered by the cecal puncture (viability test). The class given is in vivo. To be noted: for surviving rate: female BALB/c mice. From the text: Therapeutic effects of N-(2-ethylsulfonylamino-5-trifluoromethyl-3-pyridyl)cylohexanecarboxamide sodium salt monohydrate (hereinafter referred to as compound 1) on mouse models with septic shock, the onset of which was peritonitis triggered by the cecal puncture, was examined.
The compound 1 was used as a drug formulation. The formulation composition (content per one vial) was as follows.
Age: 7 weeks old when purchased and 8 weeks old when tested
The mice were pre-bred for about a week after purchase and then subjected to a test at about 8 weeks old. Breeding in the entire breeding period was carried out in an isolator placed in a large animal room. Ten mice in each group were accommodated in a polycarbonate cage throughout the test period, and they were freely fed on commercially available complete feed pellet (MF, manufactured by O. B. S.) and tap water subjected to activated carbon filtration (with use of a feed water bottle) throughout the breeding period. From the mice, mice which were healthily grown during the pre-breeding period were selected. Mice were randomly selected from the above selected mice and delivered to the respective groups one by one in the order of the animal number. The animal number was put in the order of put into a cage after the grouping.
Preparation of the drug was carried out immediately before the induction operation, and administration was carried out by using the prepared liquid for administration. Japanese Pharmacopoeia 5% glucose was injected to a formulated product containing 100 mg of the compound 1 to completely dissolve the compound 1, and a liquid for administration at the maximum dose was prepared by diluting with Japanese Pharmacopoeia 5% glucose, and a liquid for administration at a medium dose and a liquid for administration at a low dose were prepared by stepwise dilution of the liquid for administration at the maximum dose with Japanese Pharmacopoeia 5% glucose. For the non-treated group, Japanese Pharmacopoeia 5% glucose as a medium alone was prepared. Immediately after the induction, 4 hours later, 8 hours later and 12 hours later, the liquid was repeatedly administered subcutaneously to the dorsal neck to maintain the blood concentration. The liquid was administered in a volume of 10 ml/kg for each group.
Mice were anesthetized with gas-oxygen-fluothane, and the corpus 8 mm from the cecal apex was ligated through an abdominal incision, one spot in the apex was punctured and transfixed with a 22 G needle, and after leakage of cecal contents was confirmed, the cecum was completely replaced in the abdomen and the abdomen was closed.
Viability test was carried out for 3 days from immediately after the induction, and the results were summarized every 24 hours.
Employing the non-treated group as a control, comparison among groups of a group given with 0.1 mg/kg of the compound 1, a group given with 1 mg/kg of the compound 1 and a group given with 10 mg/kg of the compound 1 was carried out.
Viability test results: animals which died in 0 to 24 hours were scored 1, animals which died in 24 to 48 hours were scored 2, animals which died in 48 to 72 hours were scored 3, and animals which survived 72 hours or more were scored 4, and the obtained data were used.
Comparison among groups was carried out by Shirley-Williams' multiple comparison test.

The compound `CCS(=O)(=O)Nc1ncc(C(F)(F)F)cc1NC(=O)C1CCCCC1.O.[Na]` [Compound 1, N-(2-ethylsulfonylamino-5-trifluoromethyl-3-pyridyl)cylohexanecarboxamide sodium salt monohydrate] gave a surviving rate (0.1 mg/kg x 4 times subcutaneous, 24 hr after induction of septic shock model) of 20%; a surviving rate (0.1 mg/kg x 4 times subcutaneous, 48 hr after induction of septic shock model) of 0%; a surviving rate (0.1 mg/kg x 4 times subcutaneous, 72 hr after induction of septic shock model) of 0%; a surviving rate (1 mg/kg x 4 times subcutaneous, 24 hr after induction of septic shock model) of 40%; a surviving rate (1 mg/kg x 4 times subcutaneous, 48 hr after induction of septic shock model) of 10%; a surviving rate (1 mg/kg x 4 times subcutaneous, 72 hr after induction of septic shock model) of 10%. The surviving rate is on record as 90% (10 mg/kg x 4 times subcutaneous, 24 hr after induction of septic shock model); 50% (10 mg/kg x 4 times subcutaneous, 48 hr after induction of septic shock model); 50% (10 mg/kg x 4 times subcutaneous, 72 hr after induction of septic shock model). Where the note is “administration of 10 mg/kg, P<0.001”, the “improvement in the surviving rate versus non-treated group (Shirley-Williams' multiple comparison test)” value was “improvement in the surviving rate with statical significance”.
